Test results from patent publication US20050079503A1, “Binding domain of Siah (seven in absentia homolog) protein” (PETER MacCALLUM CANCER INSTITUTE, ST. VINCENT'S INSTITUTE …, priority 2001, published 2005).
“And” between values parts separate entries of the source, which are not always exact repeats. Equal values may be shown once. “Also recorded” adds a separate entry of the source. Blank lines part the entries; values can stand above or below the molecule they belong to. No end group written: not given here. *: point of attachment. Biotin = O=C1N[C@H]2[C@H](CS[C@H]2CCCCC(=O)*)N1

How the values were obtained:
[1] = target: T1, MBP-Siah1a (Mus musculus, UniProt P61092); assay: Surface plasmon resonance (Biacore) binding of PHYL108-130 to Siah; settings: Biacore 2000, peptide immobilised on chip, MBP-Siah1a as analyte, read-out: affinity constant
T1 construct: made in house; host or cells: pMalC2 plasmid
T1 sequence (P61092 1-282): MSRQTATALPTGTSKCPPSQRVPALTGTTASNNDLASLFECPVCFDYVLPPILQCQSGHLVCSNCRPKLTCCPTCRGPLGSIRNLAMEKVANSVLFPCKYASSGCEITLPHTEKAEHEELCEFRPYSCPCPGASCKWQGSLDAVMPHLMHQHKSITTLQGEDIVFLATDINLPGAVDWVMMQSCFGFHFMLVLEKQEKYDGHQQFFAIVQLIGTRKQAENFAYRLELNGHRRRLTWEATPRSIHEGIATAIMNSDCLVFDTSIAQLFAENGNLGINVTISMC
Excerpt: The binding kinetics for Siah interaction with PHYL108-130 were monitored using surface plasmon resonance on a Biacore 2000. The biotinylated PHYL108-130 peptide was captured on the chip surface by immobilised neutravidin, and MBP-Siah1a was used as analyte.
To determine binding affinities, synthetic PHYL peptide was immobilised to a C5 BIAcore chip using two different strategies (direct chemical coupling through the free amino group on Lysine113 and binding to coupled avidin via an N-terminal biotin on the peptide) and interaction was measured directly by surface plasmon resonance. This method facilitated the measurement of association and dissociation rates, and the determination of an affinity constant (FIG. 26).

[2] = target: T2, MBP-Siah (Mus musculus, UniProt P61092); assay: Competition assay: peptides as competitors of wild-type PHYL108-130 binding to Siah (96-well plate, anti-MBP detection); settings: competition with immobilised GST-PHYL108-130 for MBP-Siah, 1 hour at room temperature; estimated from inhibition curves; read-out: IC50 (concentration at which 50% inhibition is observed)
T2 construct: made in house
T2 sequence (P61092 1-282): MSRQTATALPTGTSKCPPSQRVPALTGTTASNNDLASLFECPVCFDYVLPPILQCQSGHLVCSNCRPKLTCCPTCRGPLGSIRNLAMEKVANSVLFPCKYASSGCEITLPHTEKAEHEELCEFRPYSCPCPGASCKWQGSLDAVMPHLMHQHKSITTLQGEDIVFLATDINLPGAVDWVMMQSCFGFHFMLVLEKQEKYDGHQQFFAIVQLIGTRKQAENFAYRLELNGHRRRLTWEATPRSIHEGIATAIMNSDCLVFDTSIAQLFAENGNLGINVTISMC
Protocol: Mutant peptides were used in a competition assay in which they were tested as competitors of wild-type PHYL 108-130 binding to Siah. GST-PHYL108-130 was immobilised in wells of a 96-well plate and MBP-Siah was bound for 1 hour at room temperature, in the presence of various concentrations of mutant peptides. After binding and washing, the amount of bound MBP-Siah was quantitated in a two antibody sandwich of anti-MBP antibody, followed by HRP-conjugated goat anti-rabbit antibody, using ABTS as substrate. IC50 (the concentration at which 50% inhibition is observed) values were estimated from the individual inhibition curves.
In order to test this hypothesis Applicants systematically mutated the PHYL peptide, utilising the solid phase pin technology of Mimotopes (Clayton, Victoria, Australia). A full set of peptides, with alanine substituted at each position in the peptide, was synthesised. At positions where a native alanine occurred, glycine was substituted. Mutant peptides were screened for their ability to compete with the binding between Siah and PHYL peptide, then peptides of interest were investigated further utilising surface plasmon resonance.
The initial screen of peptides yielded IC50 values of approximately 50-100 nM for wild-type peptide or peptides with ineffective mutations. […]

[3] = target: T3, Siah (Mus musculus, UniProt P61092); assay: Interaction studies using bacterially expressed proteins; assay type: binding
T3 construct: made in house; host or cells: bacteria
T3 sequence (P61092 1-282): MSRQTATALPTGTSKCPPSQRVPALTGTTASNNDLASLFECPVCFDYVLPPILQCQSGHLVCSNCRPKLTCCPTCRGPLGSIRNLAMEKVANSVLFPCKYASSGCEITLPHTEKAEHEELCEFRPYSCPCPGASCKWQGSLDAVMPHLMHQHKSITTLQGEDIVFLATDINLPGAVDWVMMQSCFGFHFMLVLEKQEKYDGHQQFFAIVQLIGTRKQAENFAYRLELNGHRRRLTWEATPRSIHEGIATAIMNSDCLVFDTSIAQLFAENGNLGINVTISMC
Excerpt: PHYL is known to interact and function with SINA, the Drosophila orthologue of mammalian Siah, in the targeted degradation of the transcriptional repressor tramtrack 88 (TTK88). Applicants have shown that it interacts similarly with mammalian Siah.

[4] = target: T4, MBP-Siah1a-ZC fusion protein (native Siah substrate-binding domain) (Mus musculus, UniProt P61092); assay: ELISA-based binding of biotinylated plectin peptide to Siah substrate-binding domain; settings: peptide captured on Neutravidin plate at 4 μg/ml; ABTS read at A405
T4 construct: made in house; host or cells: E. coli BL21DE3
T4 sequence (P61092 80-282): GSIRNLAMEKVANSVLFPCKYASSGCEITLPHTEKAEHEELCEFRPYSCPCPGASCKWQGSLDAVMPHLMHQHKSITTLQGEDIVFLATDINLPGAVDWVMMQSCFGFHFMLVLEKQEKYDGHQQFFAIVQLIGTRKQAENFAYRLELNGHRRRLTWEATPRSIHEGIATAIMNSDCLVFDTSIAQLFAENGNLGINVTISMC
Protocol: (§1) Siah SBD binding to the plectin peptide (Biotin-[…]-NH2 corresponding to residues 95-117 of human plectin) was assessed by capturing biotinylated peptide on a 96-well plate coated with 0.5 μg Neutravidin per well. Peptide was captured for 30 min at room temperature at a concentration of 4 μg/ml. MBP-Siah1a-ZC fusion protein was bound to the peptide for 50 min at room temperature (or the controls of buffer alone (PBS/tween 20) or mutant MBP-Siah1a-ZC containing a Leu211 to Arg mutation). Bound protein was quantitated by rabbit anti-MBP antibody (1:300 dilution), then HRP conjugated goat-anti-rabbit antibody. Detection utilised ABTS substrate read at A405.
(§2) Following the identification of a Siah binding motif present in PHYL (RPVAXVXPXXR), a protein database search detected a number of proteins with conserved motifs, including plectin. The Applicants utilised a synthetic peptide corresponding to the sequence […] in plectin to test binding to Siah in an ELISA-based assay, where the underlined sequence corresponds to the amino acids conserved with the PHYL motif. […] Furthermore, as other Siah binding proteins are identified in this way it is predicted that the sequence of the optimal binding motif will be further refined.

[5] = target: T5, mutant MBP-Siah1a-ZC containing a Leu211 to Arg mutation (Mus musculus, UniProt P61092, L211R); assay: ELISA-based binding of biotinylated plectin peptide to mutant Siah substrate-binding domain; settings: peptide captured on Neutravidin plate at 4 μg/ml; ABTS read at A405
T5 construct: made in house; the making of the mutant is not described
T5 sequence (P61092 80-282 L211R): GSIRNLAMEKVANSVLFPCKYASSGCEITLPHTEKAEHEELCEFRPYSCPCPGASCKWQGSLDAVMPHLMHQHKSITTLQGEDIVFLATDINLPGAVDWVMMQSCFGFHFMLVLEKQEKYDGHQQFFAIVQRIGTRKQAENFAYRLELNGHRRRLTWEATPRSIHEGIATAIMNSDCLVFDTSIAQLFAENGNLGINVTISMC
Protocol: as §1, §2

[6] = target: T6, Siah1a SBD (Mus musculus, UniProt P61092); assay: Stoichiometry of the GST-PHYL108-130 / Siah1a SBD complex by gel filtration and N-terminal sequencing; assay type: binding; settings: complex isolated on Superdex 200; after five cycles of N-terminal sequencing
T6 construct: isolating a complex of GST-PHYL108-130 and Siah1a SBD by gel filtration; made in house; host or cells: E. coli BL21DE3
T6 sequence (P61092 90-282 limits assumed): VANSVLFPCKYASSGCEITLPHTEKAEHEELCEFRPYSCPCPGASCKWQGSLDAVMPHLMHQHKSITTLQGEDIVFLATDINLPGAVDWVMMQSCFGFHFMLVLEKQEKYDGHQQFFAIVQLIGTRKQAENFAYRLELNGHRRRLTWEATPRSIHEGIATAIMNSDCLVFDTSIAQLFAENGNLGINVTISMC
Excerpt: The stoichiometry of interaction was investigated by isolating a complex of GST-PHYL108-130 and Siah1a SBD by gel filtration on Superdex 200 and quantitating the components by N-terminal sequencing.

Kd [1]: ~180 nM and 180 nM
IC50 [2]: 50 to 100 nM
Molecule: QQERTKLRPVAMVRPTVRVQPQL [PHYL108-130]

average ratio of Siah binding domain to GST-PHYL108-130 residues [6]: 2.34±0.38
Molecule: GST-PHYL108-130: PHYL 23-residue peptide expressed as a fusion with glutathione-S-transferase (GST) (QQERTKLRPVAMVRPTVRVQPQL; not fully specified (N-terminus); also: GST fusion)

affinity of interaction with Siah (in words) [3]: lower affinity
B1: Kid: kinesin-like DNA-binding protein (Kid) (protein, UniProt Q14807 1-665, looked up)
Kinesin-like protein KIF22: MAAGGSTQQRRREMAAASAAAISGAGRCRLSKIGATRRPPPARVRVAVRLRPFVDGTAGASDPPCVRGMDSCSLEIANWRNHQETLKYQFDAFYGERSTQQDIYAGSVQPILRHLLEGQNASVLAYGPTGAGKTHTMLGSPEQPGVIPRALMDLLQLTREEGAEGRPWALSVTMSYLEIYQEKVLDLLDPASGDLVIREDCRGNILIPGLSQKPISSFADFERHFLPASRNRTVGATRLNQRSSRSHAVLLVKVDQRERLAPFRQREGKLYLIDLAGSEDNRRTGNKGLRLKESGAINTSLFVLGKVVDALNQGLPRVPYRDSKLTRLLQDSLGGSAHSILIANIAPERRFYLDTVSALNFAARSKEVINRPFTNESLQPHALGPVKLSQKELLGPPEAKRARGPEEEEIGSPEPMAAPASASQKLSPLQKLSSMDPAMLERLLSLDRLLASQGSQGAPLLSTPKRERMVLMKTVEEKDLEIERLKTKQKELEAKMLAQKAEEKENHCPTMLRPLSHRTVTGAKPLKKAVVMPLQLIQEQAASPNAEIHILKNKGRKRKLESLDALEPEEKAEDCWELQISPELLAHGRQKILDLLNEGSARDLRSLQRIGPKKAQLIVGWRELHGPFSQVEDLERVEGITGKQMESFLKANILGLAAGQRCGAS

Continued, molecule first:

Molecule: DCC: deleted in colorectal cancer (DCC)
affinity of interaction with Siah (in words) [3]: lower affinity

Molecule: Biotin-ASLQRVRRPVAMVMPARRTPHVQ-NH2 [plectin peptide]
binding to native Siah substrate-binding domain [4]: bound; also recorded: binds
binding to mutant form of Siah substrate-binding domain (Leu211 to Arg) [5]: not
